Experimental data published in ChEMBL document CHEMBL1129029, “Understanding the binding of 5-substituted 2'-deoxyuridine substrates to thymidine kinase of herpes simplex virus type-1” (J Med Chem, 1996).

These compounds were tested against T1, Thymidine kinase (Human herpesvirus 1 (strain SC16) (HHV-1) (Human herpes simplex virus1), UniProt P06479) (assay: Binding affinity towards HSV-1 thymidine kinase).
T1 sequence (P06479 whole entry): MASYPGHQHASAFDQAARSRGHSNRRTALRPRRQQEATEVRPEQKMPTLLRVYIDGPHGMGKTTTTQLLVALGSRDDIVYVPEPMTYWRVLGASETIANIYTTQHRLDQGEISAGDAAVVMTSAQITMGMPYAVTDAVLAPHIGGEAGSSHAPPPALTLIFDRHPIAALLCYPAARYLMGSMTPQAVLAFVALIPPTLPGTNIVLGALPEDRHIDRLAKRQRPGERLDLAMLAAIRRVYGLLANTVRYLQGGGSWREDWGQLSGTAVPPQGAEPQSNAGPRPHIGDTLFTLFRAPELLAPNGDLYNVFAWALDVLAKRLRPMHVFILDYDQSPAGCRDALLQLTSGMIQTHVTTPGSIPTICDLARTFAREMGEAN

Row | SMILES | IC50 [µM]
1 | O=c1[nH]c(=O)n([C@H]2C[C@H](O)[C@@H](CO)O2)cc1-c1ccc(Br)s1 | 3.5
2 | O=c1[nH]c(=O)n([C@H]2C[C@H](O)[C@@H](CO)O2)cc1-c1ccoc1 | 1.5
3 | O=c1[nH]c(=O)n([C@H]2C[C@H](O)[C@@H](CO)O2)cc1-c1cccs1 | 2.4
4 | Cc1ccc(-c2cn([C@H]3C[C@H](O)[C@@H](CO)O3)c(=O)[nH]c2=O)s1 | 2.3
5 | O=c1[nH]c(=O)n([C@H]2C[C@H](O)[C@@H](CO)O2)cc1-c1ccno1 | 36
6 | O=c1[nH]c(=O)n([C@H]2C[C@H](O)[C@@H](CO)O2)cc1-c1ccsc1 | 4
7 | O=c1[nH]c(=O)n([C@H]2C[C@H](O)[C@@H](CO)O2)cc1-c1ccc(Cl)s1 | 2.3
8 | O=c1[nH]c(=O)n([C@H]2C[C@H](O)[C@@H](CO)O2)cc1-c1ccc(Cl)o1 | 28
9 | O=c1[nH]c(=O)n([C@H]2C[C@H](O)[C@@H](CO)O2)cc1-c1ccc(Br)o1 | 51
10 | O=c1[nH]c(=O)n([C@H]2C[C@H](O)[C@@H](CO)O2)cc1-c1ccco1 | 2.9
11 | O=c1[nH]c(=O)n([C@H]2C[C@H](O)[C@@H](CO)O2)cc1-c1cc(Br)no1 | 34
12 | O=c1[nH]c(=O)n([C@H]2C[C@H](O)[C@@H](CO)O2)cc1-c1cscc1Br | 143
13 | O=c1[nH]c(=O)n([C@H]2C[C@H](O)[C@@H](CO)O2)cc1-c1sc(Br)cc1Br | 62
14 | O=c1[nH]c(=O)n([C@H]2C[C@H](O)[C@@H](CO)O2)cc1-c1ccccc1 | 102
15 | O=c1[nH]c(=O)n([C@H]2C[C@H](O)[C@@H](CO)O2)cc1-c1sccc1Br | 61
16 | O=c1[nH]c(=O)n([C@H]2C[C@H](O)[C@@H](CO)O2)cc1-c1ccns1 | 3.1
